ChEMBL document CHEMBL1201862, “PubChem BioAssay data set” (2004)
The source made the active and inactive calls.

How the values were obtained:
[1] = molecular target: T1, Induced myeloid leukemia cell differentiation protein Mcl-1 (Homo sapiens, UniProt Q07820); assay: MCL1-BIM BH3 interaction inhibitors, dose response, biochemical, fluorescence polarization, BIM-BH3 peptide, 1536-well (AID 2217)
[2] = molecular target: T2, Low molecular weight phosphotyrosine protein phosphatase (Homo sapiens, UniProt P24666); type: functional; settings: read-out: IC50_Mean;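 note: Dose-response confirmation assay measuring inhibition of LMPTP enzyme activity by fluorescence intensity read-out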
T2 sequence (P24666 whole entry): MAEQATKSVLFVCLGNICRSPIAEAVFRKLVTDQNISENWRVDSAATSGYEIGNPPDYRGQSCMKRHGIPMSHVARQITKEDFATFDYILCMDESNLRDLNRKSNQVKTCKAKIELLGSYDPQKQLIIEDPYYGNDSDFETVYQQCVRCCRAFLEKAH

[3] = molecular target: T3, Zinc finger protein mex-5 (Caenorhabditis elegans, UniProt Q9XUB2); assay: MEX-5/TCR-2 RNA interaction inhibitors, dose response, biochemical, C. elegans, fluorescence polarization (AID 1960)
T3 sequence (Q9XUB2 whole entry): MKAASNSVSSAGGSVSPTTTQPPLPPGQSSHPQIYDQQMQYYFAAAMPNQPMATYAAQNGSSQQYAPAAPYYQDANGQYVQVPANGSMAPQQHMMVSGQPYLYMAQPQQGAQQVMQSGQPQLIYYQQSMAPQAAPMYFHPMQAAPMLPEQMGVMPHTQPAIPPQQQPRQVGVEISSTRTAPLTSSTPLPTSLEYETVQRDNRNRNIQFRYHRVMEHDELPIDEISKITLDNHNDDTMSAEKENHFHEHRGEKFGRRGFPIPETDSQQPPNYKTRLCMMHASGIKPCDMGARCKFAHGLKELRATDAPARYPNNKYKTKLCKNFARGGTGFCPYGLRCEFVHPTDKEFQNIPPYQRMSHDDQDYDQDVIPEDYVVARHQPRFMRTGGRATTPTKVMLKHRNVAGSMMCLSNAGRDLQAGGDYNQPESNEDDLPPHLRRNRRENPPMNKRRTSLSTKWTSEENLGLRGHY

Bcl-2-like protein 1 = Bcl-2-like protein 1 (Homo sapiens, UniProt Q07817); assay: BCL-XL inhibitors, dose response, selectivity assay for MCL1 inhibitor project, biochemical, fluorescence polarization, 1536-well (AID 2218)
[4] = molecular target: T4, RNA-binding protein pos-1 (Caenorhabditis elegans, UniProt G5EF15); assay: inhibitors of POS-1/mex-3 RNA binding, dose response, biochemical, fluorescence polarization (AID 1964);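 note: purified POS-1 fused to maltose binding protein made in E. coli; potency of compounds blocking POS-1 binding to fluorescent RNA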
T4 sequence (G5EF15 whole entry): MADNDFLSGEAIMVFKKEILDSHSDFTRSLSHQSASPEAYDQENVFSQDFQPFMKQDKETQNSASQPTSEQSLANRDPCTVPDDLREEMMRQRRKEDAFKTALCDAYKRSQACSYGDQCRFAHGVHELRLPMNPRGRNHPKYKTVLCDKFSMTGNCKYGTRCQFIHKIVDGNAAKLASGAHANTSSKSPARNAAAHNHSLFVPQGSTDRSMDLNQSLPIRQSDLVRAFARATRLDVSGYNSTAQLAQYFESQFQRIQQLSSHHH

Large T antigen = Large T antigen (Simian virus 40, UniProt P03070); type: functional, Betapolyomavirus macacae;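 note: Confirmatory-stage PubChem screen for compounds that inhibit SV40 T antigen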
[5] = cytotoxicity toward NIH3T3 fibroblasts, dose response, counter-screen, cell-based, ATP luminescence, mouse fibroblasts (AID 2010); type: functional;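 note: cells exposed to compound for about 90 hours before reading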
[6] = molecular target: T5, Neuropeptide Y receptor type 1 (Homo sapiens, UniProt P25929); type: functional;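 note: HEK293 cells with a CNG channel challenged with NPY then isoproterenol; potency as antagonist that reverses NPY suppression of cAMP signal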
T5 sequence (P25929 whole entry): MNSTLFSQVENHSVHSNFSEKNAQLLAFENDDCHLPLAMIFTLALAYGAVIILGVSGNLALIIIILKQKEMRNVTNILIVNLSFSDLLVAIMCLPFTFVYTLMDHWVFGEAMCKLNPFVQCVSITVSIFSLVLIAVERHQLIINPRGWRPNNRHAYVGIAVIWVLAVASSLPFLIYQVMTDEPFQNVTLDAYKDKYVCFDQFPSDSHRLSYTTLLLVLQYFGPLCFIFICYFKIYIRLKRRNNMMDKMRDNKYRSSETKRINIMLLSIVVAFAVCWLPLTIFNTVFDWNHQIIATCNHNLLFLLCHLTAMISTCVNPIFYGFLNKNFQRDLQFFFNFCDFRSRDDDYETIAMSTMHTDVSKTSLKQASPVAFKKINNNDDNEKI

[7] = inhibitors of intracellular T. cruzi replication, confirmation, NIH3T3 host cells, beta-gal luminescence (AID 2044); type: functional, cell-based;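 note: intracellular parasites grown in NIH/3T3 mouse fibroblasts as host cells; luminescent beta-galactosidase reporter signal from transgenic T. cruzi replicating inside host cells; inhibitors lower the luminescence signal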
[8] = molecular target: T6, Neuropeptide Y receptor type 2 (Homo sapiens, UniProt P49146); type: functional, cell-based;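 note: HEK293 cells expressing the receptor and a CNG channel; stimulus was NPY near EC95 followed by isoproterenol to raise cAMP; antagonist potency measured as restoring cAMP signal that NPY suppresses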
T6 sequence (P49146 whole entry): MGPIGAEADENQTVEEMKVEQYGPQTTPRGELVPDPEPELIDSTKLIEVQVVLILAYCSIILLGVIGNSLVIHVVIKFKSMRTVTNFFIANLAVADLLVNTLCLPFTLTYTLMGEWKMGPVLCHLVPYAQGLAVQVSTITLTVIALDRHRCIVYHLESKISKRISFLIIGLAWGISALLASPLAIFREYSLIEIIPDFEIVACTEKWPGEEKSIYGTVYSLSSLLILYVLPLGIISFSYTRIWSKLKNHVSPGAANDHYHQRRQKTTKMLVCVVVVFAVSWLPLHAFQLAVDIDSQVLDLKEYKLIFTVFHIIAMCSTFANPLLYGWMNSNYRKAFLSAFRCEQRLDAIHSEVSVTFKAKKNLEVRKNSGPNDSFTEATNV

[9] = molecular target: T1, Induced myeloid leukemia cell differentiation protein Mcl-1; type: functional
Genome polyprotein = Genome polyprotein (dengue virus type 2, UniProt P29990); assay: Dengue-2 NS5 methyltransferase inhibitors, primary screen, biochemical, confirmation dose response (AID 588689); type: functional
Protein Tat = molecular target: T7, Protein Tat (Human immunodeficiency virus type 1 group M subtype B (isolate HXB2)(HIV-1), UniProt P04608); type: functional;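 note: tat binding to TAR RNA read out by fluorescence polarization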
T7 sequence (P04608 whole entry): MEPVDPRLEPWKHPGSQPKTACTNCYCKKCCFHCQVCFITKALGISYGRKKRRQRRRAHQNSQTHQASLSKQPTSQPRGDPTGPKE

Bcl-2-like protein 10 = molecular target: T8, Bcl-2-like protein 10 (Homo sapiens, UniProt Q9HD36); assay: displacers of TR3 peptide from Bcl-B, primary screen, selectivity assay for Bfl-1 inhibitor project, biochemical, fluorescence polarization, FITC-TR3 peptide (AID 748);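 note: fluorescence polarization from a fluorescein-labelled TR3 peptide binding purified Bcl-B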
T8 sequence (Q9HD36 whole entry): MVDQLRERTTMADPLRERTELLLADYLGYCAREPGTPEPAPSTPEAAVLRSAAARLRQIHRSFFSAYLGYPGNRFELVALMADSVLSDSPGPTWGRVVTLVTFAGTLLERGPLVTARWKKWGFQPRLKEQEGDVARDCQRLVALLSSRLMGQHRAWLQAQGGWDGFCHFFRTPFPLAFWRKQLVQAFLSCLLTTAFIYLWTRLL

Aminopeptidase N = molecular target: T9, Aminopeptidase N (Plasmodium falciparum FcB1/Columbia, UniProt O96935); assay: P. falciparum M1AAP inhibitors, biochemical, fluorogenic H-Leu-NHMec substrate, 1536-well (AID 1445); set-up: species or system Plasmodium falciparum 3D7, 3D7
T9 sequence (O96935 whole entry): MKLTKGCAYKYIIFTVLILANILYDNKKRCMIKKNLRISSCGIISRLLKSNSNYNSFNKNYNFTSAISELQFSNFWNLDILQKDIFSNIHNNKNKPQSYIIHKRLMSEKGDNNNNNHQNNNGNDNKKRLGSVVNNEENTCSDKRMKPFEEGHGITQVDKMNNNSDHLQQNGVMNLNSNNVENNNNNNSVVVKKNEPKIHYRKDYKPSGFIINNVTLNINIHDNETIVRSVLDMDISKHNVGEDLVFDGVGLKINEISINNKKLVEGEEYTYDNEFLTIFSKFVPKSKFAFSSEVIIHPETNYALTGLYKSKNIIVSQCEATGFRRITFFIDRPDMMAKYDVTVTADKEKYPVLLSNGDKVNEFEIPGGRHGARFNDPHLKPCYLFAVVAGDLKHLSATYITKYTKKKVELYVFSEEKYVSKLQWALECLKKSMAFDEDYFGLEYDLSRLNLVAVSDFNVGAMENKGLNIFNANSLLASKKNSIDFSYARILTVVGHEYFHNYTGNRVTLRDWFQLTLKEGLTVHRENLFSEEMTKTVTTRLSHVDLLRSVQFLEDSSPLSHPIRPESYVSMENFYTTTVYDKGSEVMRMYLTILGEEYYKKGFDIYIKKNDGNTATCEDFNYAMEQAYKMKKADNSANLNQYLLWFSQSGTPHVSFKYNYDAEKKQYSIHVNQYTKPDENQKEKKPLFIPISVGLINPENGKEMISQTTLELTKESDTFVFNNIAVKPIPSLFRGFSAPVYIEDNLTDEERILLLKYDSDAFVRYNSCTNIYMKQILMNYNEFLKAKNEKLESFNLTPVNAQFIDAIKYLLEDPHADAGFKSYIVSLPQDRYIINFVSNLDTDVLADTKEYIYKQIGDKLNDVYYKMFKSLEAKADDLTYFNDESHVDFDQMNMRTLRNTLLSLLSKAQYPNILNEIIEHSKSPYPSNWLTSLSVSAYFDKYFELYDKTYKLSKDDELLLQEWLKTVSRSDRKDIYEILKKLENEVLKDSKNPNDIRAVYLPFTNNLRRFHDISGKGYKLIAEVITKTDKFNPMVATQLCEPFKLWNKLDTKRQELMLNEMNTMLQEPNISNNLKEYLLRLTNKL

Estrogen receptor beta = Estrogen receptor beta (Homo sapiens, UniProt Q92731); assay: ERβ–SRC-3 coactivator interaction inhibitors, confirmation, orthogonal assay, biochemical, ELISA, streptavidin-HRP readout (AID 1060)
[10] = Luminescence Cell-Based Dose Response HTS to Identify Activators of Luciferase Translation or Activity in H4 […] Cells. [Related pubchem assays: 1829 (Project Summary), 1814 (Primary HTS)]; type: functional
[11] = Luminescence Cell-Based Dose Response to Identify Activators of 5'UTR Stem-Loop Driven Prion Protein mRNA Translation in H4-C Neuroglioblastoma Cells. [Related pubchem assays: 1829 (Project Summary), 1814 (Primary HTS)]; type: functional
[12] = Luminescence Cell-Based Dose Response to Identify Activators of Luciferase Translation or Activity in H4-C Neuroglioblastoma Cells. [Related pubchem assays: 1829 (Project Summary), 1814 (Primary HTS)]; type: functional
[13] = Luminescence Cell-Based Dose Confirmation to Identify Activators of 5'UTR Stem-Loop Driven Alpha-Synuclein mRNA Translation in H4 Neuroglioblastoma Cells. [Related pubchem assays: 1829 (Project Summary), 1814 (Primary HTS)]; type: functional
[14] = Luminescence Cell-Based Dose Confirmation HTS to Identify Activators of 5'UTR Stem-Loop Driven Alpha-Synuclein mRNA Translation in H4 Neuroglioblastoma Cells. [Related pubchem assays: 1829 (Project Summary), 1814 (Primary HTS)]; type: functional
H4 = assay: Luminescence Cell-Based Dose Response HTS to Identify Activators of 5'UTR Stem-Loop Driven Prion Protein mRNA Translation in H4 Neuroglioblastoma Cells. [Related pubchem assays: 1829 (Project Summary), 1814 (Primary HTS)]; type: functional; settings: Homo sapiens
BJ [15] = assay: cytotoxicity toward BJ-TERT-LT-ST fibroblasts, dose response, cell-based, RAS-independent, luminescence (AID 1935); type: functional; settings: Homo sapiens;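 note: BJ fibroblasts immortalized with TERT plus LT and ST oncogenes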
BJ [16] = assay: cells; type: functional, cell-based; settings: Homo sapiens
[17] = growth suppression of PTEN-null colon cells, dose response, cell-based, HCT116 PTEN knockout (AID 1047); type: functional;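 note: HCT116 colon tumor cells with PTEN knocked out; cells exposed to compound for 60 hours before readout; potency for loss of cell viability measured by luminescence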
BJ [18] = assay: cytotoxicity toward BJ-TERT fibroblasts, dose response, cell-based, RAS-independent, luminescence (AID 1933); type: functional; settings: Homo sapiens
BJ [19] = assay: cytotoxicity toward Ras-transformed BJeLR fibroblasts, dose response, cell-based, alamar blue fluorescence, cherrypicked samples (AID 2631); type: functional; settings: Homo sapiens;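 note: confirmatory dose-response assay in RAS-dependent BJ fibroblasts engineered with TERT, LT and ST, with cytotoxicity read by fluorescence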
[20] = growth suppression of beta-catenin-knockout colon cells, dose response, cell-based, HCT116, human colon tumor (AID 1045); type: functional;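 note: HCT116 colon tumor cells with beta catenin knocked out; cells exposed to compound for 60 hours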
[21] = cytotoxicity toward DRD oncogenic fibroblasts, dose response, cell-based, non-viral oncogenic, luminescence (AID 1934); type: functional; settings: Homo sapiens

T1 sequence (Q07820 whole entry): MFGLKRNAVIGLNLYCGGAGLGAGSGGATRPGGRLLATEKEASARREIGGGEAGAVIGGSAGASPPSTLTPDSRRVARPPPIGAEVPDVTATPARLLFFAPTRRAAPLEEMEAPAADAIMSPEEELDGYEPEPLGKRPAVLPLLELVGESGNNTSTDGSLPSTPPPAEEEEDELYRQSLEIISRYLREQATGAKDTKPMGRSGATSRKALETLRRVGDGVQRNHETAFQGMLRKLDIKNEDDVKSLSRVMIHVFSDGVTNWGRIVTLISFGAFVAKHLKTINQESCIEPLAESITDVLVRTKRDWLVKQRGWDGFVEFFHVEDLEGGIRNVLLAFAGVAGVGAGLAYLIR
Chain of Large T antigen (P03070 whole entry): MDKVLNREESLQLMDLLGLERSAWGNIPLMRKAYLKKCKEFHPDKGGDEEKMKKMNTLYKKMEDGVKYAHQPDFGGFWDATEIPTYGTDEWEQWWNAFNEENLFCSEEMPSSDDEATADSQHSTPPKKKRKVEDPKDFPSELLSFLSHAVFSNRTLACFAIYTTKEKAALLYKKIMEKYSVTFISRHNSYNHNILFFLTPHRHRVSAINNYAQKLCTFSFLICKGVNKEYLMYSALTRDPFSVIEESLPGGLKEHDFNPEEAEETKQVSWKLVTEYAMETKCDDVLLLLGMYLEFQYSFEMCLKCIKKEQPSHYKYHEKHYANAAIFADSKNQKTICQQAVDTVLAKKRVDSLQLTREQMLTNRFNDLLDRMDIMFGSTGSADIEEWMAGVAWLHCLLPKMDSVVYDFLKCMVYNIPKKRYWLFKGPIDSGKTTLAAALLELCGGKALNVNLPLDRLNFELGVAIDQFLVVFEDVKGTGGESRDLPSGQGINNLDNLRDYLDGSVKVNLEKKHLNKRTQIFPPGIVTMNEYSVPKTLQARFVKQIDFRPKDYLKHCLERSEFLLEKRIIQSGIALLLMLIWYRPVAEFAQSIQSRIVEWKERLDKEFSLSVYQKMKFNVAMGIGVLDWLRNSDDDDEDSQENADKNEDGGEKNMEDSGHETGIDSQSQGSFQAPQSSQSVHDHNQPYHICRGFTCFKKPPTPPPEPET
Chain of Bcl-2-like protein 1 (Q07817 whole entry, the tested form may be a part): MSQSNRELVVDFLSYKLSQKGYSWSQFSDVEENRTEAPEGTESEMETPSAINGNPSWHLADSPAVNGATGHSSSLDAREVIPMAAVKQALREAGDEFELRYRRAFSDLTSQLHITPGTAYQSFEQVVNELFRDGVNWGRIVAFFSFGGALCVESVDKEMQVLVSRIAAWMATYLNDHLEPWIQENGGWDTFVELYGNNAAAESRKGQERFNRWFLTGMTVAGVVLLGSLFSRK
Chain of Estrogen receptor beta (Q92731 whole entry): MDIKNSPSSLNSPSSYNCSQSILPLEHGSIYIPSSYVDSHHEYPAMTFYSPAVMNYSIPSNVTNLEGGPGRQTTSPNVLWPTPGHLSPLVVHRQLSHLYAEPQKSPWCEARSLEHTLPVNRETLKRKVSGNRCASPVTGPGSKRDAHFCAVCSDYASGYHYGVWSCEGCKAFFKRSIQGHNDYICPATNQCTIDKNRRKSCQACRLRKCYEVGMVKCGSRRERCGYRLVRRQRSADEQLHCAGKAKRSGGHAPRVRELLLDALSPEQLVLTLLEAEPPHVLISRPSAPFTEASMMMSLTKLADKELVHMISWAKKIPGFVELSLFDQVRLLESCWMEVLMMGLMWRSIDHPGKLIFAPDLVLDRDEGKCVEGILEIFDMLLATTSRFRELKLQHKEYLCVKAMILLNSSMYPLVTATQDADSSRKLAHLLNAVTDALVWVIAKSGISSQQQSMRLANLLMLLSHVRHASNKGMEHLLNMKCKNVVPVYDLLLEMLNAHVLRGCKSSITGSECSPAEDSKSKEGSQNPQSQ
Chain of Genome polyprotein (P29990 2492-3391 limits assumed): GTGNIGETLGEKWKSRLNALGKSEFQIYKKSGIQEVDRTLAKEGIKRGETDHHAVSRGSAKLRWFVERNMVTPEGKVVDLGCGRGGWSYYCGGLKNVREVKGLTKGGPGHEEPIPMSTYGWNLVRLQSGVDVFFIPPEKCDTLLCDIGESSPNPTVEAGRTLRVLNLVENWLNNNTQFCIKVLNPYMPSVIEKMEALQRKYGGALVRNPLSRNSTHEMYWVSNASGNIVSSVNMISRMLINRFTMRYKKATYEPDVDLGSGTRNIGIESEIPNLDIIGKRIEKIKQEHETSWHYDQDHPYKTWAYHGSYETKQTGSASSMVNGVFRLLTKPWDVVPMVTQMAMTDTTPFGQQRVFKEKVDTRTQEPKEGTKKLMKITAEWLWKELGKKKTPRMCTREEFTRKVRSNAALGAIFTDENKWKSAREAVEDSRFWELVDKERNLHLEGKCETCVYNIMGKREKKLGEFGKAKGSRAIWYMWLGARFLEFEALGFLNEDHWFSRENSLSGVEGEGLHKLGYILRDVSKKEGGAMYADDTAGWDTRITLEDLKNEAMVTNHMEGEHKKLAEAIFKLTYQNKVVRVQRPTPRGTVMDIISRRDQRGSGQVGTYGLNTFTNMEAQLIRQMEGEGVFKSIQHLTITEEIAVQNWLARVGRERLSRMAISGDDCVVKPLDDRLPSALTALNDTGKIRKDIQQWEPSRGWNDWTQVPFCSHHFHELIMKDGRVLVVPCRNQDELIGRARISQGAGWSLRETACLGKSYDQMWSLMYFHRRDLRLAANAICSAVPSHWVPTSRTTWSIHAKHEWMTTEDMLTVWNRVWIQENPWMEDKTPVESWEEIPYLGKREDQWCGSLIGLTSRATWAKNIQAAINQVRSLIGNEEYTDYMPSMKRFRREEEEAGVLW

Compound: Cc1ccc(-c2cc(-c3ccco3)c(C#N)c(=O)[nH]2)cc1
- IC50 [1]: > 12.1 µM (not active)
- IC50 [2]: 49.2 µM (inactive)
- EC50 [3]: 8.36 µM (inconclusive)
- IC50 (Bcl-2-like protein 1): > 109 µM (not active)
- EC50 [4]: 26.1 µM (active)
- IC50 (Large T antigen): 64.5 µM (active)

Compound: CN(C)CCCSc1nc(-c2ccccc2)nc2c1CCC2
- EC50 [5]: > 60 µM (not active)
- EC50 (cells): 0.12 µM (active)
- IC50 [6]: 7.33 µM (active)
- EC50 [7]: < 0.1 µM (active)
- IC50 [8]: 18.2 µM (not active)

Compound: O=C(CSc1nnc(-c2ccco2)c(-c2ccco2)n1)Nc1ccccc1
- IC50 [9]: 3.11 µM (active)
- IC50 (Genome polyprotein): > 100 µM (active)
- IC50 (Protein Tat): 5.16 µM (inconclusive)
- IC50 (Bcl-2-like protein 10): 15.3 µM (active)
- IC50 (Aminopeptidase N): 97.7 µM (active)
- IC50 (Estrogen receptor beta): < 0.023 µM (not active)

Compound: Cc1ccc(-c2cc(NC(=O)c3ccccc3)on2)cc1
- EC50 [10]: 0.137 µM (active)
- EC50 [11]: 0.632 µM (active)
- EC50 [12]: 0.334 µM (active)
- EC50 [13]: 0.463 µM (active)
- EC50 [14]: < 0.1 µM (active)
- EC50 (H4): 9.75 µM (active)

Compound: O=C(/C=C/c1cccc2ccccc12)c1ccncc1
- EC50 (BJ [15]): > 75 µM (inconclusive)
- EC50 (BJ [16]): > 150 µM (inconclusive)
- EC50 [17]: 8.54 µM (active)
- EC50 (BJ [18]): 10.2 µM (inconclusive)
- EC50 (BJ [19]): > 133 µM (inactive)
- EC50 [20]: 5.26 µM (active)
- IC50 [6]: 5.47 µM (active)
- EC50 [21]: 16.5 µM (active)
- IC50 [8]: 4.95 µM (active)

Compound: Clc1ccccc1/C=N/Nc1cc(N2CCOCC2)ncn1
- EC50 [11]: 1.05 µM (active)
- EC50 [12]: 0.394 µM (active)
- EC50 [13]: 0.564 µM (active)
- EC50 [14]: < 0.1 µM (active)
- EC50 (H4): 9.34 µM (active)
